{"source": "patent EP0612472A1", "about": "“Herbicidal combinations comprising triazole derivatives (III)” (MONSANTO EUROPE S.A., priority 1993, dated 1994)", "tested_on": "Galium aparine", "test": "field experiment, tank mix, Belgium", "format": "in vivo", "source_text": "A field experiment has been carried out during winter time (November 1990) in Belgium.\nApplication was made at 250 l/ha using standard spraying equipment (Backpack sprayer; Nozzles XR 11003). Randomised block design with 3 replicates was used. Unit plot size was 2 X 6m². The soil surface was moist. Total ground cover: 20% crop, 10% weeds and 70% bare ground.\nThe plant species tested and corresponding true leave stage are:\nThe herbicides tested are the herbicide A as described in Example 1 in tank mix with another phytohormone type of herbicide, that is mecoprop. 0.2% surfactant (Tween® 20) has been added to the tank.\nThe results in table 2 hereafter are presented as average values of three replications."}
{"smiles": "Cc1cc(Cl)ccc1OC(C)C(=O)O", "note": "(centres unmarked) [mecoprop]", "values": [{"measurement": "control, GALAP 120 DAT", "setting": "RATE 1000 g a.i/ha", "result": 73.3, "unit": "%"}, {"measurement": "control, GALAP 120 DAT", "setting": "RATE 1200 g a.i/ha", "result": 66.7, "unit": "%"}]}
